# Laboratory results reported in ChEMBL document CHEMBL5113380, “Functionalized quinoxalinones as privileged structures with broad-ranging pharmacological activities” (Eur J Med Chem, 2022).
# Legend:
# Papillary muscle = assay: Positive inotropic activity in ferret papillary muscle assessed as contractile force measured as CFC20; type: functional, Mustela putorius furo
# Coronary artery = assay: Vasorelaxant activity in dog coronary arteries; type: functional, tissue-based; conditions: Canis lupus familiaris
# [1] = target: 3',5'-cyclic phosphodiesterase; assay: Inhibition of cAMP-specific 3',5'-cyclic phosphodiesterase (unknown origin); type: protein assay, Homo sapiens
# Mesenteric vein = assay: Vasorelaxant activity in dog mesenteric veins; type: functional, tissue-based; conditions: Canis lupus familiaris
# [2] = Inhibition of cGMP-dependent 3',5'-cyclic phosphodiesterase (unknown origin); parameters: species or system Homo sapiens
# MCF7 = assay: Antiproliferative activity against human MCF7 cells; type: functional, cell-based
# [3] = Antiproliferative activity against human 3AO cells; type: functional, cell-based
# [4] = target: T1, Vascular endothelial growth factor receptor 2 (Homo sapiens, UniProt P35968); assay: Inhibition of VEGFR2 (unknown origin) at 1 uM relative to control
# T1 sequence (P35968 whole entry): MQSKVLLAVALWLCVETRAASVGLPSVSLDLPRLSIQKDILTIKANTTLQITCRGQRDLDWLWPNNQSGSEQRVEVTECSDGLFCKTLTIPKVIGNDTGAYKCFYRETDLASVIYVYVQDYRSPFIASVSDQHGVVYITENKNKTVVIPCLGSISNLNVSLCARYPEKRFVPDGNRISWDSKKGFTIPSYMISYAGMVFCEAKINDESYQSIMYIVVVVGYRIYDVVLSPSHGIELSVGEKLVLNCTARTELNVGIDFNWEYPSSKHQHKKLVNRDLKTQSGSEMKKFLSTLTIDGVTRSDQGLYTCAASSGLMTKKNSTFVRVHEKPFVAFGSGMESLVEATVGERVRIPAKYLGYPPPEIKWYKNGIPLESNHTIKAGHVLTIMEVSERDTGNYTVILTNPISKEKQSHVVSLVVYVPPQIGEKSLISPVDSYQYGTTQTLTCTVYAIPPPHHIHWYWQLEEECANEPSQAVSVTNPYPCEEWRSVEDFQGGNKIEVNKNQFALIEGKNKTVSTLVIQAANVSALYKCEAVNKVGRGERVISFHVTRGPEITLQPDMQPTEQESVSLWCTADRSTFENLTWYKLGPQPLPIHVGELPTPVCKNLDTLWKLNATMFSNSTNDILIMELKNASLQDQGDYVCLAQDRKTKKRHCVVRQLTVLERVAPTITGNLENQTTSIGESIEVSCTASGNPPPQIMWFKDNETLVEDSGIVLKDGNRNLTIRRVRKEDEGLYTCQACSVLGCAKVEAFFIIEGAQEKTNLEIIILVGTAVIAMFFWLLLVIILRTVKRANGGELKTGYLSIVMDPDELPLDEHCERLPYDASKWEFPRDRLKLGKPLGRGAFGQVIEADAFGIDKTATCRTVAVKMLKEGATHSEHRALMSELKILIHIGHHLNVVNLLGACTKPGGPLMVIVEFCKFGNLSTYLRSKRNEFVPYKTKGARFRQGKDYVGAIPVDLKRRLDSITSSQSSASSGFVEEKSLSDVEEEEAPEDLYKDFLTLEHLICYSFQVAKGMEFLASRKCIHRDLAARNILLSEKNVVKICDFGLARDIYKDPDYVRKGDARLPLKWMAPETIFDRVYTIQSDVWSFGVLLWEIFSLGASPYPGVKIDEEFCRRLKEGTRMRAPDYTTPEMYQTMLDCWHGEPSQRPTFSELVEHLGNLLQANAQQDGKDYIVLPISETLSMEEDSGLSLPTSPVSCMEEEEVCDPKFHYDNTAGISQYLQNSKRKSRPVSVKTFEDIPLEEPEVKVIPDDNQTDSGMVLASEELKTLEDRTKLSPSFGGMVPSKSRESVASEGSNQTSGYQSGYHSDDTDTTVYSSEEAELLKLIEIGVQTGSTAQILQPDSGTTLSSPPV
# HeLa = assay: Antiproliferative activity against human HeLa cells; type: functional, cell-based
# K562 = assay: Antiproliferative activity against human K562 cells; type: functional, cell-based
# BEAS-2B = assay: Antiproliferative activity against human BEAS-2B cells; type: functional, cell-based
# PC-3 = assay: Antiproliferative activity against human PC-3 cells; type: functional, cell-based
# Escherichia coli [5] = assay: Antibacterial activity against Escherichia coli; type: functional
# Enterococcus faecalis = assay: Antibacterial activity against Enterococcus faecalis; type: functional
# [6] = test system: Mycobacterium tuberculosis; assay: Antimycobacterial activity against Mycobacterium tuberculosis H37Rv; type: functional
# Candida albicans = assay: Antifungal activity against Candida albicans; type: functional
# Staphylococcus aureus [7] = assay: Antibacterial activity against Staphylococcus aureus; type: functional
# Aspergillus fumigatus = assay: Antifungal activity against Aspergillus fumigatus; type: functional
# Klebsiella pneumoniae = assay: Antibacterial activity against Klebsiella pneumoniae; type: functional
# Pyricularia grisea [8] = assay: Antifungal activity against Magnaporthe grisea GD08-T19 at 50 ug/ml; type: functional; conditions: dose 50 µg/ml
# Pyricularia grisea [9] = assay: Antifungal activity against Magnaporthe grisea GD08-T19 assessed as diameter zone of inhibition; type: functional
# [10] = Antioxidant activity assessed as DPPH radical scavenging activity; type: functional
# [11] = Antioxidant activity assessed as NO radical scavenging activity; type: functional
# [12] = Antioxidant activity assessed as H2O2 radical scavenging activity; type: functional
# HepG2 = assay: Antiproliferative activity against human HepG2 cells; type: functional, cell-based
# [13] = target: T1, Vascular endothelial growth factor receptor 2
# Bacillus subtilis = assay: Antibacterial activity against Bacillus subtilis assessed as diameter zone of inhibition; type: functional
# Staphylococcus aureus [14] = assay: Antibacterial activity against Staphylococcus aureus assessed as diameter zone of inhibition; type: functional
# Escherichia coli [15] = assay: Antibacterial activity against Escherichia coli assessed as diameter zone of inhibition; type: functional
# [16] = Inhibition of ALR2 (unknown origin); parameters: species or system Homo sapiens
# [17] = Antioxidant activity assessed as DPPH radical scavenging activity at 100 uM; type: functional
# [18] = Inhibition of ALR1 (unknown origin) relative to control; parameters: concentration or dose not given beside the values; conditions: Homo sapiens; concentration not given here
# [19] = Inhibition of lipid peroxidation at 100 uM by measuring MDA concentration; type: functional
# [20] = target: Glutamate [NMDA] receptor; assay: Displacement of [3H]MK-801 from NMDA receptor (unknown origin); type: protein-complex assay, Homo sapiens
# [21] = Displacement of [3H]glycine from AMPA receptor (unknown origin); type: protein-complex assay, Homo sapiens
# [22] = target: T2, Glutamate receptor ionotropic AMPA (Homo sapiens, UniProt P42261+P42262+P42263+P48058); assay: Displacement of [3H]kainic acid from AMPA receptor (unknown origin); type: protein-complex assay
# [23] = target: T2, Glutamate receptor ionotropic AMPA; assay: Displacement of [3H]AMPA from AMPA receptor (unknown origin); type: protein-complex assay
# Escherichia coli [24] = assay: Antibacterial activity against Escherichia coli W3110; type: functional
# Pseudomonas aeruginosa = assay: Antibacterial activity against Pseudomonas aeruginosa; type: functional
# [25] = Inhibition of Escherichia coli topoisomerase 4
# Streptococcus pneumoniae = assay: Antibacterial activity against Streptococcus pneumoniae; type: functional
# [26] = Dissociation constant, pKa of the compound; type: physicochemical
compound,measurement,setting,value
CCc1nccn1-c1ncnc2c1nc(O)c1cnc(CC)n12,Activity,Papillary muscle,>100 µM
same,EC50,Coronary artery,59 µM
same,IC50,[1],> 100 µM
same,EC50,Mesenteric vein,23 µM
same,IC50,[2],14 µM
O=C(Cn1c(=O)c(/C=C/c2ccncc2)nc2ccccc21)Nc1ccc(Cl)c(Cl)c1,IC50,MCF7,47.6 µM
same,IC50,[3],> 100 µM
same,inhibition,[4],56%
same,IC50,HeLa,> 100 µM
same,IC50,K562,> 100 µM
same,IC50,BEAS-2B,> 100 µM
same,IC50,PC-3,> 100 µM
C/C(=N\NC(=O)Cn1c(=O)c(C)nc2ccccc21)c1cccnc1,MIC,Escherichia coli [5],125 µg/mL
same,MIC,Enterococcus faecalis,16.1 µg/mL
same,MIC,[6],25 µg/mL
same,MIC,Candida albicans,16.1 µg/mL
same,MIC,Staphylococcus aureus [7],250 µg/mL
same,MIC,Aspergillus fumigatus,8.06 µg/mL
same,MIC,Klebsiella pneumoniae,125 µg/mL
Oc1nc2cccnc2n2ccnc12,Activity,Papillary muscle,2.2 µM
same,EC50,Coronary artery,11 µM
same,IC50,[1],44 µM
same,EC50,Mesenteric vein,10 µM
same,IC50,[2],27 µM
Cn1c(=O)c(C(CCCOc2cc(=O)oc3ccccc23)CC(F)(F)F)nc2ccccc21 (centres undefined),Activity,Pyricularia grisea [8],23%
same,diameter of the inhibition zone (DIZ),Pyricularia grisea [9],48 mm
Cc1nc2ccccc2n(CC(=O)N/N=C/c2ccc(OCCn3cc(CN4CCCC4)nn3)cc2)c1=O,IC50,[10],27.17 µg/mL
same,IC50,[11],53.19 µg/mL
same,IC50,[12],56.81 µg/mL
Cn1c(=O)c(C(CCCNC(=O)c2ccc(OC(F)(F)F)cc2)CC(F)(F)F)nc2ccccc21 (centres undefined),Activity,Pyricularia grisea [8],49%
same,diameter of the inhibition zone (DIZ),Pyricularia grisea [9],32 mm
Cc1nc2ccccc2n(CC(=O)N/N=C/c2ccc(OCCn3cc(CN4CCCCC4)nn3)cc2)c1=O,IC50,[10],28.24 µg/mL
same,IC50,[11],52.08 µg/mL
same,IC50,[12],54.34 µg/mL
O=C(Cn1c(=O)c(/C=C/c2ccncc2)nc2ccccc21)Nc1ccc(Cl)cc1,IC50,MCF7,> 100 µM
same,IC50,[3],> 100 µM
same,inhibition,[4],44%
same,IC50,HeLa,> 100 µM
same,IC50,K562,50.4 µM
same,IC50,BEAS-2B,> 100 µM
same,IC50,PC-3,> 100 µM
Cc1ccc(O)c(NC(=O)c2ccc(NC(=O)Cn3c(=O)c4nncn4c4ccccc43)cc2)c1,IC50,MCF7,8.1 µM
same,IC50,HepG2,7.8 µM
same,IC50,[13],0.0039 µM
O=C(Cn1c(=O)c(/C=C/c2ccncc2)nc2ccccc21)Nc1ccc(F)cc1,IC50,MCF7,49 µM
same,IC50,[3],> 100 µM
same,inhibition,[4],6%
same,IC50,HeLa,> 100 µM
same,IC50,K562,> 100 µM
same,IC50,BEAS-2B,> 100 µM
same,IC50,PC-3,59.9 µM
Cc1nc2ccccc2n(CC(=O)N/N=C/c2ccc(OCCn3cc(CN4CCOCC4)nn3)cc2)c1=O,IC50,[10],25 µg/mL
same,IC50,[11],47.16 µg/mL
same,IC50,[12],49.01 µg/mL
Cc1ccc(S(=O)(=O)NCCCC(CC(F)(F)F)c2nc3ccccc3n(C)c2=O)cc1 (centres undefined),Activity,Pyricularia grisea [8],23%
same,diameter of the inhibition zone (DIZ),Pyricularia grisea [9],47 mm
O=C(CC1=NC2CCCCC2NC1=O)NNC(=S)Nc1ccccc1 (centres undefined),diameter of the inhibition zone (DIZ),Bacillus subtilis,18 mm
same,diameter of the inhibition zone (DIZ),Staphylococcus aureus [14],16 mm
same,diameter of the inhibition zone (DIZ),Escherichia coli [15],12 mm
O=C(O)Cn1c(=O)c(Oc2ccc(O)cc2)nc2cc(F)ccc21,IC50,[16],0.0196 µM
same,Activity,[17],23.7%
same,inhibition,[18],11.8%
same,inhibition,[19],14.3%
O=C(O)c1cc2c3cc(Cl)c(Cl)cc3[nH]c(=O)n2n1,IC50,[20],0.89 µM
same,Ki,[21],0.16 µM
same,IC50,[22],41 µM
same,Ki,[23],2.4 µM
CCc1nc(C)c2c(O)nc3ccccc3n12,Activity,Papillary muscle,0.2 µM
same,EC50,Coronary artery,1.7 µM
same,IC50,[1],2 µM
same,EC50,Mesenteric vein,0.8 µM
same,IC50,[2],0.4 µM
CCc1ncc2c(O)nc3cccnc3n12,Activity,Papillary muscle,0.1 µM
same,EC50,Coronary artery,0.3 µM
same,IC50,[1],1 µM
same,EC50,Mesenteric vein,0.5 µM
same,IC50,[2],7 µM
C/C(=N\NC(=O)Cn1c(=O)c(C)nc2ccccc21)c1ccc(N)cc1,MIC,Escherichia coli [5],125 µg/mL
same,MIC,Enterococcus faecalis,16.1 µg/mL
same,MIC,[6],25 µg/mL
same,MIC,Candida albicans,16.1 µg/mL
same,MIC,Staphylococcus aureus [7],125 µg/mL
same,MIC,Aspergillus fumigatus,1 µg/mL
same,MIC,Klebsiella pneumoniae,125 µg/mL
Cc1ccc(-n2cc(COc3ccc(/C=N/NC(=O)Cn4c(=O)c(C)nc5ccccc54)cc3)nn2)cc1,IC50,[10],26.04 µg/mL
same,IC50,[11],48.07 µg/mL
same,IC50,[12],52.08 µg/mL
O=C(Cn1c(=O)c2nncn2c2ccccc21)Nc1ccc(C(=O)Nc2cc(Cl)ccc2Cl)cc1,IC50,MCF7,10.3 µM
same,IC50,HepG2,8.4 µM
same,IC50,[13],0.0048 µM
N#Cc1ccc2c(c1)N(CCN1CCC(NCc3ccc4c(n3)NC(=O)CO4)CC1)C(=O)CO2,MIC,Escherichia coli [24],0.25 µg/mL
same,MIC,Pseudomonas aeruginosa,2 µg/mL
same,MIC,Staphylococcus aureus [7],0.13 µg/mL
same,IC50,[25],0.0032 µM
same,MIC,Streptococcus pneumoniae,0.5 µg/mL
COc1ccc2ncc(=O)n(CCN3CCC(NCc4cc5c(cn4)OCCO5)CC3)c2c1,MIC,Escherichia coli [24],0.5 µg/mL
same,MIC,Pseudomonas aeruginosa,4 µg/mL
same,MIC,Staphylococcus aureus [7],0.02 µg/mL
same,IC50,[25],0.005 µM
same,MIC,Streptococcus pneumoniae,0.06 µg/mL
N#Cc1ccc2ccc(=O)n(CCN3CC[C@H](NCc4cc5c(cn4)OCCO5)[C@H](F)C3)c2c1,MIC,Escherichia coli [24],4 µg/mL
same,MIC,Pseudomonas aeruginosa,> 8 µg/mL
same,MIC,Staphylococcus aureus [7],0.06 µg/mL
same,IC50,[25],0.048 µM
same,MIC,Streptococcus pneumoniae,0.13 µg/mL
same,pKa,[26],4.47
C/C(=N\NC(=O)Cn1c(=O)c(C)nc2ccccc21)c1ccc(O)cc1,MIC,Escherichia coli [5],125 µg/mL
same,MIC,Enterococcus faecalis,16.1 µg/mL
same,MIC,[6],25 µg/mL
same,MIC,Candida albicans,4 µg/mL
same,MIC,Staphylococcus aureus [7],250 µg/mL
same,MIC,Aspergillus fumigatus,4 µg/mL
same,MIC,Klebsiella pneumoniae,125 µg/mL
Cn1c(=O)c(C(CCCOC(=O)c2cccs2)CC(F)(F)F)nc2ccccc21 (centres undefined),Activity,Pyricularia grisea [8],23%
same,diameter of the inhibition zone (DIZ),Pyricularia grisea [9],47 mm
O=c1[nH]c2ccccc2nc1Cc1nnc(S)o1,diameter of the inhibition zone (DIZ),Bacillus subtilis,10 mm
same,diameter of the inhibition zone (DIZ),Staphylococcus aureus [14],11 mm
COc1ccc(/C(C)=N/NC(=O)Cn2c(=O)c(C)nc3ccccc32)cc1,MIC,Escherichia coli [5],125 µg/mL
same,MIC,Enterococcus faecalis,131 µg/mL
same,MIC,[6],25 µg/mL
same,MIC,Candida albicans,250 µg/mL
same,MIC,Staphylococcus aureus [7],62.5 µg/mL
same,MIC,Aspergillus fumigatus,8.06 µg/mL
same,MIC,Klebsiella pneumoniae,125 µg/mL
